Assay results published in paper PMC9599717, “The Multicellular Effects of VDAC1 N-Terminal-Derived Peptide” (Biomolecules, 2022).
pKd: −log10 of the molar value.

Columns and labels:
[1] = test system: MEC-1 (human B-cell chronic lymphocytic leukemia); test: Cell death by PI staining and flow cytometry (FACS), MEC-1; type: cell-based; settings: MEC-1 cells, 1.5 h
Method: MEC-1 cells were incubated in a serum-free medium with various concentrations of VDAC1-based peptides for 1.5 h at room temperature (RT), collected by centrifugation, washed with phosphate-buffered saline (PBS), and analyzed for cell death. Adherent cancer cells were seeded in culture plates and allowed to adhere overnight in a sterile cell culture incubation chamber maintained at 37 °C and 5% CO2. The next day, media was removed from the plates, and cells were treated with various concentrations of VDAC1-based peptides for the indicated time in serum-free Dulbecco’s Modified Eagle Medium (DMEM) with and without DMSO (final 0.15%) as a control for 6 h at 37 °C and 5% CO2. Cells were trypsinized, centrifuged (1500× g, 5 min), and washed with PBS.
Cell death was analyzed by the propidium iodide (PI) staining, followed by flow cytometry with the iCyt sy3200 Benchtop Cell Sorter/Analyzer and analysis with EC800 v 1.3.7 software (Sony Biotechnology Inc., San Jose, CA, USA). Apoptosis was analyzed by PI and annexin V-FITC staining, which was carried out according to the manufacturer’s instructions with minor modifications. […] Next, cells were washed and PI (6.25 μg/mL), was added immediately before flow cytometry At least 10,000 events were collected, recorded on a dot plot, and analyzed by flow cytometry. […]

VDAC1 = test: Microscale thermophoresis (MST) binding to fluorescently labeled purified VDAC1; settings: fluorescently labeled purified VDAC1 (138 nM); actin 10–500 nM, tubulin 20–2000 nM; 10 mM Tricine pH 7.4, 100 mM NaCl; read-out: Kd of interaction with VDAC1 (MST)
Method: Purified VDAC1 was fluorescently labeled using the NanoTemper Protein-Labeling Blue Kit. Fluorescently labeled VDAC1 was incubated with different concentrations of actin, tubulin, or peptides in 10 mM Tricine buffer (pH 7.4) containing 100 mM NaCl. After a 20-min incubation, 8–10 μL aliquots were loaded into microscale thermophoresis (MST) grade glass capillaries (NanoTemper Technologies, Munich, Germany), and thermophoresis was measured with the NanoTemper Monolith-NT115 system (20/40% light-emitting diode, 40% infrared laser power).
Figure 5 D-Δ(1-18)N-Ter-Antp altered actin filament organization (A,B) U-87MG cells were cultured and incubated for 24 h with D-Δ(1-18)N-Ter-Antp (10 µM). Cells were stained for actin using Phalloidin-488 and visualized by confocal microscopy (A) and quantified for Phalloidin-488 staining intensity (B). The results were from triplicates of different biological repeats and are presented as the means ± SEM. * p ≤ 0.05; ** p ≤ 0.01. (C) Maximum intensity projection of super-resolution (SIM) microscopy image. […] (D) Actin interaction with VDAC1 analyzed using the MST method. […] (E) In vitro G-actin polymerization was monitored, as described in the Method section. […]
Figure 6 D-Δ(1-18)N-Ter-Antp altered tubulin filament organization. […] Quantification of tubulin staining intensity (B). […] (D) Tubulin (20–2000 nM) interaction with VDAC1 analyzed using the MST method.

pKd (VDAC1) | Substance | Maximal cell death (at the concentration for maximal cell death) [1]
 | 11-GKSARDVFTKGYGFGL-26- RRMKWKK [Δ(1-10)N-Ter-min-Antp, VDAC1 N-terminal residues 11-26 fused to minimal Antp] | 20%
7.52 | actin | 
